Results: paper PMC3949622, “Macrocyclic Pyridyl Polyoxazoles: Structure-Activity Studies of the Aminoalkyl Side-Chain on G-Quadruplex Stabilization and Cytotoxic Activity” (Molecules, 2013)
Read-outs that look alike come from different tables or passages of the source. Marks after values point to notes of the source that are not given here.

Assays:
several tumor cell lines = conditions: ref [18],[20]; read-out: average IC50 towards several tumor cell lines; cited from earlier work
Description: (§1) The development of G-quadruplex stabilizers as a potential new class of anticancer agents hinges on the ability to design compounds that stabilize only G-quadruplexes and not other nucleic acid structures such as duplex or triplex DNA [15]. While a diverse array of compounds have been reported to stabilize G-quadruplex DNA [1], most also have some ability to stabilize duplex DNA. The natural product telomestatin for example, is reported to stabilize G-quadruplex DNA with 70:1 selectivity over duplex DNA [16, 17]. In contrast, the synthetic macrocyclic hexaoxazole HXDV (Figure 1) demonst ...

RPMI 8402 cells [1] = experiment: MTT cytotoxicity assay, RPMI 8402; format: cell-based, human; conditions: continuous exposure for four days
Method: (§2) Each N,N-dimethylamino-substituted macrocycle was also evaluated for cytotoxic activity against a human lymphoblastoma RPMI 8402 and a human epidermoid carcinoma KB3-1 cell line (Table 2). The results from these assays are informative about the relationship of structure to cytotoxic activity among the PyPX macrocyclic G-quadruplex stabilizers. […] An explanation for this observation is not clear at this time. The three-carbon analogs 12 and 22 have nearly equivalent activity at both positions, but these longer-chain analogs are generally lower in activity than the two-carbon analogs. Attachment of the dimethylamino group directly to the phenyl ring (8 and 19) leads to compounds having the greatest cytotoxic potency at their respective points of attachment. […] In general analogs that have an even number (0 or 2) of methylene spacer groups are more cytotoxic than those with an odd number. […] Moving the side-chain away from the phenyl ring and onto an oxazole ring also fails to improve cytotoxic activity.
(§3) Cytotoxicity was determined using the MTT-microtiter plate tetrazolinium assay (MTA). The human lymphoblast RPMI 8402 cell line was provided by Dr. Toshiwo Andoh (Aichi Cancer Center Research Institute, Nagoya, Japan). The KB3-1 cell line was obtained from K.V. Chin (The Cancer Institute of New Jersey, New Brunswick, NJ, USA). The cytotoxicity assay was performed using 96-well microtiter plates. Cells were grown in suspension at 37 °C in 5% CO2 and maintained by regular passage in RPMI medium supplemented with 10% heat inactivated fetal bovine serum, L-glutamine (2 mM), penicillin (100 U/mL), and Streptomycin (0.1 mg/mL). For determination of IC50 values, cells were exposed continuously for four days to varying concentrations of drug, and MTT assays were performed at the end of the fourth day. […] All assays were performed at least twice in six replicate wells.

[2] = tested on: Salmon testes (ST) duplex DNA; conditions: change in transition temperature of ST duplex DNA; ref [21]; cited from earlier work
Description: Table 1 Effect of various pyridyl polyoxazoles on the thermal stabilities of duplex and quadruplex DNA. | column: Salmon Testes Duplex DNA / ΔTtran (°C) ^a

KB3-1 cells [3] = experiment: MTT cytotoxicity assay, KB3-1; format: cell-based, human; conditions: continuous exposure for four days, means of at least two determinations ± standard deviation, read-out: IC50, KB3-1 wt.
Method: as §2, §3

[4] = tested on: human telomeric sequence d[T2G3(T2AG3)3A] (hTel) quadruplex DNA; experiment: UV melting of hTel quadruplex DNA (G-quadruplex stabilization); format: binding; conditions: hTel 5 µM strand, drug 20 µM; for ΔTtran, hTel quadruplex DNA: change in Ttran induced by compound, UV melting at 295 nm, pH 7.5, K+ 150 mM, uncertainty ± 0.5 °C; for Ttran, hTel quadruplex DNA: first-derivative UV melting at 295 nm, 10 mM potassium phosphate pH 7.5, total K+ 150 mM, no drug: 64.6
Method: (§4) Each compound was evaluated for its ability to selectively bind and stabilize G-quadruplex DNA in the presence of K^+ ions (150 mM). Salmon testes (ST) DNA was employed as a model of duplex DNA and the human telomeric sequence d[T2G3(T2AG3)3A], denoted as hTel, was used as a model of quadruplex DNA. This sequence has been shown by Patel and co-workers, to exist as an intramolecular (3 + 1) G-quadruplex in which three strands are oriented in one direction and the fourth is oriented in the opposite direction in K^+ solution [35]. The first-derivative forms of the UV melting profiles for ST DNA and hTel DNA were recorded in the absence and presence of the various macrocycles. The ligand-induced changes, if any, in the transition temperature (Ttran) corresponding to the maxima (for quadruplex DNA) or minima (for duplex DNA) of these first-derivative melting profiles are listed in Table 1 for each macrocycle. With the exception of 8 which has a slight (<1 °C) destabilizing effect, none of the other macrocycles alters the thermal stability of ST duplex DNA to any significant extent and any observed changes in Ttran are within the experimental uncertainty. This observation is consistent with little or no duplex DNA binding by these macrocycles. Similar behavior has been observed for other macrocyclic pyridyl polyoxazoles. Temperature-Dependent Spectrophotometry. Temperature-dependent absorption experiments were conducted on an AVIV Model 14DS Spectrophotometer (Aviv Biomedical, Lakewood, NJ, USA) equipped with a thermoelectrically controlled cell holder. Quartz cells with a path length of 1.0 cm were used for all the absorbance studies. Temperature-dependent absorption profiles were acquired at either 260 nm (for ST duplex DNA) or 295 nm (for hTel quadruplex DNA) with a 5 s averaging time. The temperature was raised in 0.5 °C increments, and the samples were allowed to equilibrate for 1 min at each temperature setting. In the quadruplex melting studies, the hTel concentration was 5 µM in strand (120 μM in nucleotide). When present in these quadruplex studies, the drug concentrations were 20 µM. In the duplex melting studies the ST DNA concentrations were 15 µM base pair (30 μM in nucleotide) and, when present, the drug concentrations were 15 µM. The buffer for all the UV melting experiments contained 10 mM potassium phosphate (pH 7.5) and sufficient KCl (132 mM) to bring the total K^+ concentration to 150 mM. Prior to their use in the UV melting experiments, all nucleic acid solutions were preheated at 90 °C for 5 min and slowly cooled to room temperature over a period of 4 hr.

[5] = tested on: Salmon testes (ST) duplex DNA; experiment: UV melting of salmon testes duplex DNA; format: binding; conditions: for ΔTtran, salmon testes duplex DNA: change in Ttran induced by compound, UV melting at 260 nm, pH 7.5, K+ 150 mM, uncertainty ± 0.5 °C; for ΔTtran, salmon testes duplex DNA / Ttran, salmon testes duplex DNA: ST DNA 15 µM base pair, drug 15 µM; for Ttran, salmon testes duplex DNA: first-derivative UV melting at 260 nm, 10 mM potassium phosphate pH 7.5, total K+ 150 mM, no drug: 86.6
Method: as §4

[6] = Water-solubility (qualitative); format: physicochemical; conditions: qualitative statement, method not given
RPMI 8402 cells [7] = conditions: range given for analogs 1 and 2 together; ref [21]; read-out: IC50 against RPMI 8402 cells; cited from earlier work
Description: as §1, with “Table 2 Relative cytotoxic activities. IC50 values (μM) ^a. | column: RPMI 8402 || The development” for “The development”

KB3-1 cells [8] = conditions: range given for analogs 1 and 2 together; ref [21]; read-out: IC50 against KB3-1 cells; cited from earlier work
Description: as §1, with “Table 2 Relative cytotoxic activities. IC50 values (μM) ^a. | column: KB3-1 wt. || The development” for “The development”

[9] = means of at least two determinations ± standard deviation

water-solubility [6] | Structure (SMILES) | IC50 (several tumor cell lines) [nM] | IC50 (RPMI 8402 cells [1]; [9]) [nM] | ΔTtran, salmon testes duplex DNA [2] | IC50 (KB3-1 cells [3]) [nM] | ΔTtran, hTel quadruplex DNA [4] [°C] | Ttran, hTel quadruplex DNA [4] [°C] | ΔTtran, salmon testes duplex DNA [5] [°C] | Ttran, salmon testes duplex DNA [5] [°C] | destabilizing effect on ST duplex DNA (thermal stability) ([5]; size of the decrease in Ttran) [°C] | IC50 (RPMI 8402 cells [1]; single determination) [nM] | IC50 (RPMI 8402 cells [7]) [nM] | IC50 (KB3-1 cells [8]) [nM]
– | CC(C)[C@@H]1NC(=O)c2coc(n2)-c2coc(n2)-c2coc(n2)[C@H](C(C)C)NC(=O)c2coc(n2)-c2coc(n2)-c2coc1n2 [HXDV, reference compound] | 500 | 540 ± 120 | 0 ^b °C | 350 ± 80 | – | – | – | – | – | – | – | –
– | CN(C)CCc1oc2nc1C(=O)NCc1cccc(c1)CNC(=O)c1nc(oc1CCN(C)C)-c1coc(n1)-c1cccc(n1)-c1nc-2co1 [Compound 37, Pyridyl tetraoxazole macrocycle with two 2-(N,N-dimethylamino)ethyl side chains] | – | 1500 | – | 400 ± 100 | 1.6 | 66.2 | −0.4 | 86.2 | – | – | – | –
– | CN(C)Cc1cc2cc(c1)CNC(=O)c1coc(n1)-c1coc(n1)-c1cccc(n1)-c1nc(co1)-c1nc(co1)C(=O)NC2 [Compound 20, Pyridyl tetraoxazole macrocycle with a 5-(N,N-dimethylaminomethyl) group on the phenyl ring] | – | 7000 ± 4200 | – | 5500 ± 700 | 0.1 | 64.7 | −0.4 | 86.2 | – | – | – | –
– | CN(C)CCCc1ccc2cc1CNC(=O)c1coc(n1)-c1coc(n1)-c1cccc(n1)-c1nc(co1)-c1nc(co1)C(=O)NC2 [Compound 12, Pyridyl tetraoxazole macrocycle with a 4-[3-(N,N-dimethylamino)propyl] group on the phenyl ring] | – | 400 | – | 250 ± 70 | 7.1 | 71.7 | −0.4 | 86.2 | – | – | – | –
significantly less water-soluble | CN(C)c1ccc2cc1CNC(=O)c1coc(n1)-c1coc(n1)-c1cccc(n1)-c1nc(co1)-c1nc(co1)C(=O)NC2 [Compound 8, Pyridyl tetraoxazole macrocycle with a 4-(N,N-dimethylamino) group on the phenyl ring] | – | – | – | 30 | 20.5 | 85.1 | −0.9 | 85.7 | < 1 | 120 | – | –
– | CN(C)CCCc1cc2cc(c1)CNC(=O)c1coc(n1)-c1coc(n1)-c1cccc(n1)-c1nc(co1)-c1nc(co1)C(=O)NC2 [Compound 22, Pyridyl tetraoxazole macrocycle with a 5-[3-(N,N-dimethylamino)propyl] group on the phenyl ring] | – | 500 ± 100 | – | 220 ± 130 | 28.6 | 93.2 | −0.4 | 86.2 | – | – | – | –
– | NCCc1cc2cc(c1)CNC(=O)c1coc(n1)-c1coc(n1)-c1cccc(n1)-c1nc(co1)-c1nc(co1)C(=O)NC2 [Compound 1] | – | – | – | – | – | – | – | – | – | – | 90 to 180 | 30 to 40
good water-solubility | CN(C)CCc1oc2nc1C(=O)NCc1cccc(c1)CNC(=O)c1coc(n1)-c1coc(n1)-c1cccc(n1)-c1nc-2co1 [Compound 36, Pyridyl tetraoxazole macrocycle with a single 2-(N,N-dimethylamino)ethyl side chain] | – | 280 ± 40 | – | 140 ± 20 | 4.6 | 69.2 | −0.4 | 86.2 | – | – | – | –
– | CN(C)CCc1ccc2cc1CNC(=O)c1coc(n1)-c1coc(n1)-c1cccc(n1)-c1nc(co1)-c1nc(co1)C(=O)NC2 [Compound 11, Pyridyl tetraoxazole macrocycle with a 4-[2-(N,N-dimethylamino)ethyl] group on the phenyl ring] | – | 500 ± 400 | – | 70 ± 70 | 24.6 | 89.2 | −0.4 | 86.2 | – | – | – | –
significantly less water-soluble | CN(C)c1cc2cc(c1)CNC(=O)c1coc(n1)-c1coc(n1)-c1cccc(n1)-c1nc(co1)-c1nc(co1)C(=O)NC2 [Compound 19, Pyridyl tetraoxazole macrocycle with a 5-N,N-dimethylamino group on the phenyl ring] | – | 60 ± 10 | – | 30 | 15.5 | 80.1 | −0.5 | 86.1 | – | – | – | –
